In series [1] the test system is Murine leukaemia L1210. Kind of series: In vitro cytotoxicity on murine leukaemia L1210 (Microculture Tetrazolium Assay).
Procedure: (§2) Murine leukaemia L1210 was used in vitro. The cells are cultured in RPMI 1640 complete culture medium containing 10% foetal calf serum, 2 mM glutamine, 50 units/ml of penicillin, 50 μg/ml of streptomycin and 10 mM Hepes, pH: 7.4. The cells are distributed on microplates and exposed to the cytotoxic compounds for 4 doubling periods, or 48 hours. The number of viable cells is then quantified by means of a colorimetric assay, the Microculture Tetrazolium Assay (J. Carmichael et al., Cancer Res., 47, 936–942, (1987)). The results are expressed as IC50, the concentration of cytotoxic agent which inhibits the proliferation of the treated cells by 50%.
In series [2] the test system is Human KB-3-1 (bucal epidermoïde carcinoma) cell. Kind of series: In vitro cytotoxicity on human KB-3-1 cells (procedure of Example 27).
Procedure: as §2
For series [3], the system named is C38 adenocarcinoma of the colon. Description: Anti-tumour activity with respect to C38 adenocarcinoma of the colon in mice. Type of series: in vivo. As to conditions: for T/C (tumor growth), C38: Table 3; for anti-tumour activity (% T/C): C38 s.c. in B6D2F1 mice, tumour volume. Here is the method: Tumour fragments of C38 adenocarcinoma of the colon weighing approximately 30 mg were implanted under the skin of B6D2F1 mice (Iffa Credo, France) on day 0.
After growth of the tumour, the mice were divided into control (18 animals) and treated (6 or 7 animals) groups, which were homogeneous with respect to tumour size. The products were administered by the i.v. route once per week for 3 weeks (on days 10, 17 and 24), at their Maximum Tolerated Dose (MTD), MTD/2 and MTD/4. The tumours were measured twice a week and the tumour volumes were calculated according to the following formula: volume (mm^3)=length (mm)×breadth (mm^2)/2. The anti-tumour activity is expressed as % T/C:
[formula] V0 and Vt being the initial volume of the tumour and its volume at measurement time t, respectively.
The optimum dose is the dose giving the lowest T/C value without toxicity (early death or weight loss greater than 20%).
The procedure used in the anti-tumour activity with respect to C38 adenocarcinoma is the same as the procedure described in the present application at Example 28.

The subject of a further series is P388 (murine leukaemia). Kind of series: Anti-tumour activity with respect to P388 leukaemia in mice. The class given is in vivo. The note with it: P388 i.p. in B6D2F1 mice, products i.v. on day 1. Here is the method: Line P388 (murine leukaemia) was supplied by the National Cancer Institute (Frederick, USA). The tumour cells (10^6 cells) were inoculated on day 0 into the peritoneal cavity of female B6D2F1 mice (Iffa Credo, France). Six mice weighing from 18 to 20 g were used in each test group. The products were administered by the intravenous route on day 1. The anti-tumour activity is expressed as % T/C: […]

In series [4] the test system is human IGROV1 ovarian carcinoma. Description: Anti-tumour activity on IGROV1 ovarian carcinoma in nude mice. As to conditions: IGROV1 i.p. in nude mice, 12.5 mg/kg i.v. days 4 and 14, optimal dose; median survival time. The class given is in vivo. Here is the method:
(§1) The anti-tumour activity of the compounds against the human A549 non-small cell lung carcinoma was evaluated essentially as described (Kraus-Berthier, L., Jan, M., Guilbaud, N., Naze, M., Pierré, A., and Atassi, G. Histology and sensitivity to anticancer drugs of two human non-small cell lung carcinomas implanted in the pleural cavity of nude mice. Clinical Cancer Res., 6, 297–304, 2000). Briefly, 10^6 A549 cells were implanted through the chest wall into the left pleural space of nude mice in a volume of 100 μl. Compounds were administered i.v. at three doses on days 14 and 24 after tumor graft. Animal mortality was checked daily and the anti-tumour activity was expressed as T/C %=(median survival time of treated group/median survival time of control group)×100. Results given in table 3 are the highest T/C values obtained at the maximum non-toxic dose, i.e. the optimal dose.
The anti-tumour activity of the compounds against the human IGROV1 ovarian carcinoma was evaluated essentially as described (Burbridge, M. F., Kraus-Berthier, L., Naze, M., Pierré, A., Atassi, G. and Guilbaud, N. Biological and pharmacological characterization of three models of human ovarian carcinoma established in nude mice: use of the CA125 tumor marker to predict antitumor activity. Int. J. Oncol., 15, 1155–1162, 1999). […] The anti-tumour activity was evaluated as described above for A549 lung carcinoma.

The subject of series [5] is human A549 non-small cell lung carcinoma. Description: Anti-tumour activity on A549 lung carcinoma in nude mice. The note with it: A549 in pleural space of nude mice, median survival time. Type of series: in vivo. On the procedure: as §1
The subject of series [6] is Murine leukaemia L1210.
Procedure: as §2
The subject of series [7] is Human KB-3-1 (bucal epidermoïde carcinoma) cell.
Procedure: as §2
Setting [8] is: Mus musculus, L1210, read-out: IC50 (μM), Cytotoxicity on Murine L 1210 cells.
The mark [9] stands for this setting: Homo sapiens, KB 3-1, read-out: IC50 (μM), Cytotoxicity on Human KB-3-1 (bucal epidermoïde carcinoma) cell.

Where two headings read alike, the source gives them in different places. Marks after values point to notes of the source that are not given here.

The values that follow come from patent US7056929B2, “Benzo[b]pyrano[3,2-h]acridin-7-one compounds” (Les Laboratoires Servier, priority 2001, dated 2006).

What is called IC50 is the concentration that inhibits the measured activity by half. On to `CCN(CC)C(=O)O[C@@H]1c2c(cc(OC)c3c(=O)c4cc5ccccc5cc4n(C)c23)OC(C)(C)[C@@H]1OC(=O)N(CC)CC` (racemic) [Example 23, (±)-cis-1-{[(Diethylamino)carbonyl]oxy}-6-methoxy-3,3,14-trimethyl-7-oxo-2,3,7,14-tetrahydro-1H-benzo[b]pyrano[3,2-h]acridin-2-yl diethylcarbamate], for which the IC50 in the series on Murine leukaemia L1210 [1] (setting [8]) was 0.9 µM.
In the case of `Cn1c2cc3ccccc3cc2c(=O)c2c(OCCO)cc3c(c21)C=CC(C)(C)O3` [Example 1, 6(2-Hydroxyethoxy)-3,3,14-trimethyl-3,14-dihydro-7H-benzo[b]-pyrano[3,2-h]acridin-7-one], the IC50 in series [2] (setting [9]) was 0.5 µM.
As to `COc1cc2c(c3c1c(=O)c1cc4ccccc4cc1n3C)[C@H](OC(=O)N(C)C)[C@H](OC(=O)N(C)C)C(C)(C)O2` [Example 11, (1S,2S)-1-{[(Dimethylamino)carbonyl]oxy}-6-methoxy-3,3,14-trimethyl-7-oxo-2,3,7,14-tetrahydro-1H-benzo[b]pyrano[3,2-h]acridin-2-yl dimethylcarbamate], the IC50 in the series with Murine leukaemia L1210 [1] (Mus musculus, L1210, 48 h) is 0.78 µM; in the series on Murine leukaemia L1210 [1] (setting [8]), 0.8 µM; in series [2] (setting [9]), 0.4 µM. Further, in series [3] (C38, dose 25 mg/kg i.v.), the “T/C (tumor growth), C38” value is 41%^a. The “anti-tumour activity (% T/C)” value in series [3] (i.v. days 10, 17 and 24, optimum dose of 25 mg/kg) is 41%.
`COc1cc2c(c3c1c(=O)c1ccccc1n3C)C=CC(C)(C)O2` [acronycine, reference compound]: in the series on P388 (murine leukaemia), the T/C entry is given as “only marginally active”. Further, the “anti-tumour activity (% T/C)” value in series [3] (i.v. days 10, 17 and 24, optimum dose of 100 mg/kg) stood at 27%.
Regarding “(±)-cis-1,2-Dipentenoyloxy-6-methoxy-3,3,14-trimethyl-2,3,7,14-tetrahydro-1H-benzo[b]pyrano[3,2-h]acridin-7-one [Example 7]”, the IC50 with Murine leukaemia L1210 [1] (L1210 cells, exposure 4 doubling periods or 48 hours) is 0.52 µM; in the series on Murine leukaemia L1210 [1] (read-out: IC50 (μM), Cytotoxicity on Murine L 1210 cells, L1210 cells, procedure of Example 27, Table 1) it was 0.5 µM; in series [2] (read-out: IC50 (μM), Cytotoxicity on Human KB-3-1 (bucal epidermoïde carcinoma) cell, KB-3-1 cells, procedure of Example 27, Table 2), 0.14 µM. In series [4], the “T/C (survival), IGROV1” value was found to be 148%^b. The “T/C (survival), A549” value in series [5] (12.5 mg/kg i.v. days 14 and 24, optimal dose) was 218%^b. For the same compound, the “T/C (tumor growth), C38” value in series [3] (C38, dose 25 mg/kg i.v.) stood at 12%^a. In series [3] (i.v. days 10, 17 and 24, optimum dose of 12.5 mg/kg), the “anti-tumour activity (% T/C)” value came to 30%.
With “(±)-cis-1-Hydroxy-6-methoxy-2-pentenoyloxy-3,3,14-trimethyl-2,3,7,14-tetrahydro-1H-benzo[b]pyrano[3,2-h]acridin-7-one [Example 8]”, in series [5] (25 mg/kg i.v. days 14 and 24, optimal dose), the “T/C (survival), A549” value was found to be 340%^b. Further, the IC50 was 0.9 µM in the series on Murine leukaemia L1210 [6] and 0.1 µM in series [7]. Besides, the “T/C (tumor growth), C38” value in series [3] (C38, dose 50 mg/kg i.v.) was 15%^a.
